From patent US20240398783A1, “Compounds and Pharmaceutical Compositions Comprising Inhibitors of Amyloid Peptide Interactions with Glycosaminoglycans, Methods of Treatment and Use Thereof” (Gismo Therapeutics, Inc., priority 2021, published 2024)
Where a name gives a salt, the structure may show the parent alone. Read-outs that look alike come from different tables or passages of the source.

What was measured:
[1] = molecular target: T1, Amyloid-beta(1-42) oligomer binding to heparin (HS-GAG) (Homo sapiens, UniProt P05067); assay: Inhibition of Amyloid-beta(1-42) oligomer binding to immobilized heparin-BSA (ELISA); set-up: species or system porcine; settings: for inhibition at 30 µM: read-out: Abeta42/Heparin Activity (% inhibition class); for IC50: co-incubation on heparin-BSA plates, read-out: Abeta42/Heparin Activity (IC-50)
T1 construct: Beta-amyloid (1-42) was purchased from rPeptide (Cat. No. A1163); purchased rPeptide A1163
T1 sequence (P05067 672-713): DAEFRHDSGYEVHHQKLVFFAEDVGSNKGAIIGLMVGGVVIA
Protocol: (§1) Porcine intestinal mucosa heparin conjugated to Bovine Serum Albumin (Heparin-BSA) was prepared as described (Najjam, S. et al. 1997, Cytokine 12, 1013-1022). Heparin is a sulfated HS-GAG and is commonly used as a HS-GAG in biochemical and binding assays (Lindahl, U. and Kjellen, L. (2013) ibid). Heparin-BSA at 0.01 mg/ml in Phosphate Buffered Saline (PBS; pH 7.4) was added to a 96 well polystyrene ELISA plate (NUNC Cat. No. 449824; 100 μl per well) and incubated Over Night (ON) at 4 degrees Celsius. For negative controls, ELISA plates were coated with BSA instead of Heparin-BSA, using the same procedure. Following the incubation, the plate was washed consecutively, by immersion, with de-ionized water and PBS (pH 7.4). The ELISA plate was then blocked with nonfat milk (2%, 200 μl per well) for 2 hours at Room Temperature (RT) with gentle shaking. Following blocking, the plate was washed with de-ionized water then PBS (pH 7.4). GBAPs were dissolved and diluted in PBS (pH 6.5, supplemented with 0.1% BSA) at desired concentrations, added to the ELISA plates containing immobilized Heparin-BSA (100 μl per well) and incubated for 2 hours at RT with gentle shaking. Following incubation, the plate was washed with de-ionized water and three times with PBS (pH 6.5) plus Tween. Bound GBAP was detected by a monoclonal antibody specific for that GBAP, followed by incubation with secondary antibody conjugated to horseradish peroxidase (HRP). Antibody was diluted in PBS (pH 6.5 supplemented with 1% BSA). Following each incubation with antibody, the plate was washed with de-ionized water and three times with PBS (pH 6.5) wash buffer containing 0.1% Tween. The peroxidase substrate chromogen, TMB (Dako Cat. No. S1599) was added (100 μl per well) to the ELISA plate and incubated at room temperature. After 5 minutes ELISA Stop Solution (hydrochloric acid 1N, sulfuric acid 3N) was added (100 μl per well) to stop the peroxidase catalyzed colorimetric reaction. The Optical Density of the samples was measured at 450 nm using an ELISA plate reader (BioTek Synergy H1). Following color development, the % inhibition compared to control (BSA-coated plates) was determined. IC-50s were calculated using GraphPad Prism software.
The assay was performed as described in Example 43, with the following modifications. Following to coating the plates with Heparin-BSA, plates were washed as described. The compounds were dissolved in DMSO at 10 mM final concentration and further diluted prior to assay. DMSO concentration in the screening well was up to 2%. Individual compounds were co-incubated with Beta-amyloid peptides on plates containing immobilized heparin. Beta-amyloid (1-42) was purchased from rPeptide (Cat. No. A1163) and used to prepare oligomers according to Stine et al., 2003 (J Biol Chem. 278(13):11612-22) as follows. 1,1,1,3,3,3-Hexafluoro-2-propanol- (HFIP; Sigma Cat. No. 105228)-treated Beta amyloid (1-42) was dissolved in dry DMSO (Sigma Cat. No. D2650) to 5 mM concentration. Dissolved Beta amyloid (1-42) was then diluted to 100 μM in ice-cold cell culture medium (phenol red-free Ham's F-12; Caisson Labs, Cat. No. HFL05), followed immediately by vortexing for 30 seconds, and incubating at 4 degrees Celsius for 24 h. Resulting Beta amyloid (1-42) oligomers were centrifuged at 12,000 rpm for 10 min at 4 degree Celsius to remove aggregates. Oligomers were then quickly frozen and kept in aliquots at −80 degrees Celsius. Beta-amyloid (1-40) from rPeptide (Cat No. A1153) was dissolved in DMSO, quickly frozen and kept in aliquots at −80 degrees Celsius. Beta-amyloid (1-42) oligomers or Beta-amyloid (1-40) diluted in PBS (pH 6.5, supplemented with BSA, 0.1%) were added to the ELISA plate (100 μl per well) and incubated for 2 hours at RT with gentle shaking. Following the incubation, the plate was washed with de-ionized water and three times with PBS (pH 6.5) plus Tween. […]

[2] = molecular target: Tau binding to heparin (HS-GAG) (Homo sapiens, UniProt P10636); assay: Inhibition of Tau binding to immobilized heparin-BSA (ELISA); set-up: species or system porcine; settings: for inhibition at 30 µM: read-out: Tau/Heparin Activity (% inhibition class)
Sequence of Tau binding to heparin (HS-GAG) (P10636 with tags, fused parts or gaps): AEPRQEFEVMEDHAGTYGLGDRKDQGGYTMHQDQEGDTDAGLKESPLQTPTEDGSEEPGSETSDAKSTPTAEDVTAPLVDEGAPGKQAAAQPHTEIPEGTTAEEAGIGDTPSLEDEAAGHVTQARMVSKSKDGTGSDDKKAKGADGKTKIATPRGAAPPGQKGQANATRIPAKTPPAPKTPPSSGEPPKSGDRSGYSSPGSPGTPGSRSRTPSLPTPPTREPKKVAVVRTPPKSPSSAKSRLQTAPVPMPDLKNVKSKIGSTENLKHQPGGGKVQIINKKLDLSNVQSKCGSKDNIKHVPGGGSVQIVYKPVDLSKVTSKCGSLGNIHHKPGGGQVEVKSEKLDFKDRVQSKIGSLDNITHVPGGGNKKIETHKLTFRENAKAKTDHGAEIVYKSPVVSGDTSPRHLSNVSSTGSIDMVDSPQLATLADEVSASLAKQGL
Protocol: as §1
The assay was performed as described in Example 43, with the following modifications. Following to coating the plates with Heparin-BSA, plates were washed as described. The compounds were dissolved in DMSO at 10 mM final concentration and further diluted prior to assay. DMSO concentration in the screening well was up to 2%. Individual compounds were co-incubated with Tau on plates containing immobilized heparin. Tau purchased from rPeptide (Cat. No. T1001) was dissolved in DMSO (Sigma Cat. No. D2650), quickly frozen and kept in aliquots at −80 degrees Celsius. Tau dissolved in PBS (pH 6.5, supplemented with BSA, 0.1%) was added to the ELISA plate (100 μl per well) and incubated for 2 hours at RT with gentle shaking. Following the incubation, the plate was washed with de-ionized water and three times with PBS (pH 6.5) plus Tween. Bound Tau was detected by anti-Tau Monoclonal Antibody D-8 (Santa Cruz Cat. No. sc-166060), followed by secondary anti-IgG antibody conjugated to HRP (R&D System, Cat. No. HAF007). Following to color development with TMB, as described in Example 43, the Optical Density of the samples was measured at 450 nm using an ELISA plate reader. Following color development, the % inhibition compared to control (no compound, DMSO control) for every compound was determined.
An example of inhibition curve is shown in FIG. 3 for Inhibitor Compounds 3 and 6. As described in Example 43, Heparin in the form of Heparin-BSA conjugate is used as a source of HS-GAG. For each compound IC-50 value in Tau—heparin-BSA binding assay is shown in […]. In some cases IC-50 was not measured and […] at 30 μM compound concentration is shown instead. […]

[3] = Tau/Heparin Activity (IC-50), Tau, heparin-BSA
[4] = 30 μM compound, Abeta(1-42) oligomers, heparin-BSA
[5] = 30 μM compound, Tau, heparin-BSA
[6] = Tau, heparin-BSA, read-out: Tau/Heparin Activity (IC-50)

`C/C(=N\Nc1ncnc2cc(Cl)ccc12)c1cccc(N2CCN(C)CC2)c1` [Compound 30, 7-chloro-4-(2-(1-(3-(4-methylpiperazin-1-yl)phenyl)ethylidene)hydrazineyl)quinazoline] was tested, and the inhibition at 30 µM [1] was greater than 30% and the IC50 [2, 3] was 32.2 µM.
`CN1CCN(c2cc(Nc3ccnc4cc(Cl)ccc34)ccn2)CC1` [Compound 20, 7-chloro-N-(2-(4-methylpiperazin-1-yl)pyridin-4-yl)quinolin-4-amine] showed an inhibition at 30 µM [1] of less than 30% and an inhibition at 30 µM [2] of less than 30%.
With `CC(=NNc1ccnc2cc(Cl)ccc12)c1ccc(-n2ccnc2)cc1` [Compound 36, 4-(2-(1-(4-(1H-imidazol-1-yl)phenyl)ethylidene)hydrazineyl)-7-chloroquinoline phosphate] the IC50 ([1]; Abeta(1-42) oligomers) was 14.2 µM and the IC50 [2, 3] was 28.5 µM.
`CCN(CC)Cc1cccc(Nc2ccnc3cc(Cl)ccc23)c1` [Compound 42, 7-chloro-N-(3-((diethylamino)methyl)phenyl)quinolin-4-amine] showed an inhibition at 30 µM [1, 4] of less than 30% and an inhibition at 30 µM [2, 5] of less than 30%.
`COc1ccc2c(NN=Cc3ccc(-n4ccnc4)c(C)c3)ccnc2c1` [Compound 12, 4-(2-(4-(1H-imidazol-1-yl)-3-methylbenzylidene)hydrazineyl)-7-methoxyquinoline] was tested, and the inhibition at 30 µM [1] was less than 30% and the IC50 [2, 3] was 13.1 µM.
In the case of `C[n+]1ccc(/C=N\Nc2ccnc3ccccc23)cc1` [Compound 9, (Z)-1-methyl-4-((2-(quinolin-4-yl)hydrazono)methyl)pyridin-1-ium iodide], the inhibition at 30 µM [1, 4] is reported as less than 30% and the inhibition at 30 µM [2, 5] is reported as less than 30%.
Compound `CC(=NNc1ccnc2cc(Cl)ccc12)c1ccc(-n2cc[n+](C)c2)nc1` [Compound 23, 1-(5-(1-(2-(7-chloroquinolin-4-yl)hydrazineylidene)ethyl)pyridin-2-yl)-3-methyl-1H-imidazol-3-ium iodide] has an inhibition at 30 µM [1, 4] of less than 30% and an IC50 [2, 3] of 25.7 µM.
`C/C(=N\Nc1ncnc2cc(Cl)ccc12)c1ccc(-n2cncn2)nc1` [Compound 32, (E)-4-(2-(1-(6-(1H-1,2,4-triazol-1-yl)pyridin-3-yl)ethylidene)hydrazineyl)-7-chloroquinazoline] gave an inhibition at 30 µM [1, 4] of less than 30% and an inhibition at 30 µM [2] of less than 30%.
With `O=S1(=O)CCN(Cc2ccc(/C=N/Nc3ccnc4cc(F)ccc34)cc2)CC1` [Compound 10, (E)-4-(4-((2-(7-fluoroquinolin-4-yl)hydrazono)methyl)benzyl)thiomorpholine 1,1-dioxide] the inhibition at 30 µM [1, 4] was less than 30% and the inhibition at 30 µM [2, 5] was less than 30%.
`C/C(=N\Nc1ncnc2cc(Cl)ccc12)c1ccc(-n2cc(C)nc2C)nc1` [Compound 18, (E)-7-chloro-4-(2-(1-(6-(2,4-dimethyl-1H-imidazol-1-yl)pyridin-3-yl)ethylidene)hydrazineyl)quinazoline phosphoric acid salt] gave an IC50 ([1]; Abeta(1-42) oligomers) of 13.6 µM and an IC50 [2, 6] of 13.6 µM.
Compound `C/C(=N\Nc1ncnc2cc(Cl)ccc12)c1ccc(-n2cc(C)nc2C)nc1` [Compound 27, (E)-7-chloro-4-(2-(1-(6-(2,4-dimethyl-1H-imidazol-1-yl)pyridin-3-yl)ethylidene)hydrazineyl)quinazoline hydrochloride] has an inhibition at 30 µM [1] greater than 30% and an IC50 [2, 6] of 2.86 µM.
`Fc1ccc2c(N/N=C/c3ccc(-n4ccnc4)cc3)ccnc2c1` [Compound 5, (E)-4-(2-(4-(1H-imidazol-1-yl)benzylidene)hydrazinyl)-7-fluoroquinoline] showed an inhibition at 30 µM [1] of less than 30% and an IC50 [2, 3] of 31.4 µM.
In the case of `Cc1cn(-c2ccc(Nc3cncc4cc(Cl)ccc34)cn2)c(C)n1` [Compound 37, 7-chloro-N-(6-(2,4-dimethyl-1H-imidazol-1-yl)pyridin-3-yl)isoquinolin-4-amine phosphoric acid salt], the inhibition at 30 µM [1, 4] is reported as less than 30% and the inhibition at 30 µM [2] is reported as less than 30%.
Work on `C/C(=N\Nc1ncnc2cc(F)ccc12)c1ccc(-n2cc[n+](C)c2)nc1` [Compound 26, (E)-1-(5-(1-(2-(7-fluoroquinazolin-4-yl)hydrazineylidene)ethyl)pyridin-2-yl)-3-methyl-1H-imidazol-3-ium phosphoric acid salt] yielded an inhibition at 30 µM [1] greater than 30% and an IC50 [2, 3] of 17.7 µM.
`COc1cc(Nc2cncc3cc(Cl)ccc23)cnc1-n1cnc(C)c1C` [Compound 33, 7-chloro-N-(6-(4,5-dimethyl-1H-imidazol-1-yl)-5-methoxypyridin-3-yl)isoquinolin-4-amine phosphoric acid salt] was tested, and the inhibition at 30 µM [1, 4] was less than 30% and the IC50 [2, 3] was 24.7 µM.
`C(=N\Nc1ccc2c3c(cccc13)CC2)/c1ccc(-n2ccnc2)cc1` [Compound 8, (E)-1-(4-((2-(1,2-dihydroacenaphthylen-5-yl)hydrazineylidene)methyl)phenyl)-1H-imidazole] showed an inhibition at 30 µM [1] of less than 30% and an inhibition at 30 µM [2] of less than 30%.
`Clc1ccc2c(N/N=C/c3ccc(-n4cccn4)cc3)ccnc2c1` [Compound 3, (E)-4-((E)-(4-(1H-pyrazol-1-yl)benzylidene)hydrazono)-7-chloro-1,4-dihydroquinoline] was tested, and the IC50 ([1]; Abeta(1-42) oligomers) was 2.36 µM and the IC50 [2, 3] was 1.56 µM.
`Cc1cc(-n2ccnc2)ccc1/C=N/Nc1ccnc2cc(Cl)ccc12` [Compound 1, (E)-4-((E)-(4-(1H-imidazol-1-yl)-2-methylbenzylidene)hydrazono)-7-chloro-1,4-dihydroquinoline] gave an IC50 ([1]; Abeta(1-42) oligomers) of 2.3 µM and an IC50 [2, 6] of 1.38 µM.
`Cc1ncn(-c2ncc(Nc3ncnc4cc(Cl)ccc34)cc2O)c1C` [Compound 40, 5-((7-chloroquinazolin-4-yl)amino)-2-(4,5-dimethyl-1H-imidazol-1-yl)pyridin-3-ol phosphoric acid salt] showed an IC50 ([1]; Abeta(1-42) oligomers) of 8.65 µM and an inhibition at 30 µM [2] greater than 30%.
`Clc1ccc2c(Nc3ccc(-n4cncn4)nc3)ccnc2c1` [Compound 44, N-(6-(1H-1,2,4-triazol-1-yl)pyridin-3-yl)-7-chloroquinolin-4-amine] was tested, and the IC50 ([1]; Abeta(1-42) oligomers) was 35.7 µM and the inhibition at 30 µM [2] was greater than 30%.
